The values below come from paper PMC6930638, “The Masked Polar Group Incorporation (MPGI) Strategy in Drug Design: Effects of Nitrogen Substitutions on Combretastatin and Isocombretastatin Tubulin Inhibitors” (Molecules, 2019).

Structures are written as SMILES. ≈ marks a conversion by molar mass, not a printed value. Where two headings read alike, the source gives them in different places.

Data set [1] has as its system Bovine brain microtubule protein (MTP). Nature of the data set: Tubulin polymerization inhibition assay (turbidimetry). The data set is classed as biochemical. The conditions noted are these: 1.5 mg/mL MTP; IC50 calculated only if more than 50% inhibition at 20 µM; read-out: TPI IC50. As to the method:
Bovine brain microtubule protein (MTP) was isolated as previously described. Briefly, it was purified according to the modified Shelanski method by two cycles of temperature-dependent assembly/disassembly.
Tubulin polymerization was monitored using a Helios α spectrophotometer by measuring the increase in turbidity at 450 nm, caused by a shift from 4 °C to 37 °C, which allows the in vitro MTP self-disassembly and assembly respectively. […] Firstly, ligands at 20 µM concentration, were incubated with 1.5 mg/mL MTP at 20 °C for 30 min and subsequently cooled on ice for 10 min. Then, the experiment starts at 4 °C to establish the initial baseline. The assembly process was initiated by shifting of the temperature to 37 °C and the turbidity produced can be measured by an absorbance increase. After reaching a stable plateau, the temperature was switched back to 4 °C to return to the initial absorption values. The difference in amplitude between the stable plateau and the initial baseline of the curves was taken as the degree of tubulin polymerization for each experiment. […] All the measurements were carried out in at least two independent experiments using MTP from different isolation.

Data set [2] deals with HeLa cervix epithelioid carcinoma. In words: MTT cell antiproliferative assay, HeLa. The data set is classed as cell-based. The conditions noted are these: Homo sapiens, 72 h. The protocol: (§1) The in vitro antiproliferative activity of the synthesized compounds was evaluated by a colorimetric reaction, using the MTT reagent. They were tested against three different human tumor cell lines: HeLa cervix epithelioid carcinoma, HT-29 colon adenocarcinoma, and MCF-7 breast adenocarcinoma. […] Moving the alkylamino substituent from a para to a meta position with respect to the bridge results in potency reduction, except for the phenstatin analogue 1f. However, the introduction of a nitrogen atom to form 2-dimethylaminopyridine derivatives entails a loss of activity, both for phenstatin analogues (1b, 2b), while for isocombretastatins, it only involves a 2–3 times potency decrease (3b). For combretastatins, it implies an improvement in the cytotoxicity values down to tenths of nanomolar (8b). […] On the other hand, the best 2-dimethylaminopyridine was combretastatin 8b. All ammonium salts derivatives were not cytotoxic at micromolar concentrations.
(§2) HeLa (human cervical carcinoma) and MCF-7 (human breast carcinoma) cell lines were cultured in Dulbecco’s Modified Eagles Medium (DMEM) supplemented with 2 mM L-glutamine (Lonza-Cambrex, Karlskoga, Sweden), 10% (v/v) heat inactivated fetal bovine serum (HIFBS) (Lonza-Cambrex) and 100 μg/mL streptomycin-100 IU/mL penicillin (Lonza-Cambrex) at 37 °C in humidified 95% air and 5% CO2. HT-29 (human colon carcinoma) cells were cultured at 37 °C in complete RPMI 1640 medium containing 2 mM L-glutamine, 10% (v/v) HIFBS and 100 μg/mL streptomycin-100 IU/mL penicillin in humidified 95% air and 5% CO2 atmosphere.
(§3) The effect of the different compounds on the proliferation of human cell lines was determined by using the MTT (3-[4,5-dimethylthiazol-2-yl]-2,5-diphenyltetrazolium bromide) reagent (MTT Thiazolyl Blue Tetrazolium Bromide, Sigma-Aldrich, St. Louis, MO, USA) dissolved in PBS 5 mg/mL. Cell viability was evaluated seeding 100 µL of cells in exponential growth phase with appropriate cell line concentration (1.5 × 10^4 HeLa and MCF-7 cells/mL and 3 × 10^4 HT-29 cells/mL) in complete medium in 96-well plates at 37 °C and 5% CO2. After 24 h incubation to allow cells to attach to the plates the ligands were added at different concentrations from 10^−5 to 10^−9 M. The effect on the proliferation was evaluated 72 h post-treatment by adding the MTT reagent (10 µL/well) to a final concentration of 0.5 mg/mL and the plate was further incubated for another 3 h. After this period, the supernatant was removed, the MTT violet crystals formed on the bottom of each well were dissolved in DMSO (100 µL/well) and subsequently, the absorbance of the color complex was read at 570 nm using a multi-well plate reader. Compounds were dissolved in dimethyl sulfoxide (DMSO) and the final solvent concentrations never exceeded 0.5% (v/v). The control wells included treated cells with 0.5% (v/v) DMSO and the positive control. Measurements were performed in triplicate, and each experiment was repeated three times. […] Nonlinear curves fitting the experimental data were carried out for each compound.

Data set [3] can be described thus: Aqueous solubility determination (shake flask, UV). Format: physicochemical. The conditions noted are these: for solubility at 48 h: thermodynamic from solid. As to the method:
One of the expected effects of introducing nitrogen substitutions on combretastatin and isocombretastatin analogues, is an increase in aqueous solubility. Solubility was spectrophotometrically determined in phosphate buffer at pH 7. UV absorbance of soluble compounds was measured after shaking and microfiltration. […] In addition, aqueous solubilities of the corresponding ammonium salts are over 1 mg/mL.
This great improvement is probably due to the symmetry reduction, combined with an increased polarity for 2g.
Compounds were stirred in a solution of phosphate buffer at pH 7.0 (1–2 mg of compound in 300 µL of buffer) during 48 h. After that, the samples were filtered over a […] filter to discard the insoluble residues. In order to determine the maximum wavelength of absorbance for each compound, a scan between 270 and 400 nm was performed. Once the wavelength was selected, a calibration line was performed and the concentration of the stirred and filtered samples was measured.

The test system of data set [4] is HT-29 colon adenocarcinoma. Nature of the data set: MTT cell antiproliferative assay, HT-29 (without or with verapamil). Format: cell-based, human. The conditions noted are these: for IC50: Homo sapiens, HT-29, MTT, 72 h. The protocol:
as §1
As observed in Table 1, there are no significant changes in the IC50 values for most compounds, except for combretastatins 8a and 8i.
Acquired resistance to antitumor drugs is one of the more important problems of chemotherapy, also affecting tubulin-targeting drugs. In order to ascertain the impact of multidrug resistance phenotypes on the action of the compounds, we have measured the cell proliferation inhibitory activity of HT-29 cells in the presence of verapamil, a known P-glycoprotein 1/multidrug resistance protein 1 (MDR1) inhibitor at a concentration of 10 µM, not affecting cell proliferation. […] Except for the combretastatin analogues 8a and 8i, the affected drugs are all pyridine drugs.
as §2, §3
Background: Tetrazolium assays rely on reduction of a dye to a coloured formazan, in cell work by metabolically active cells.

The test system of data set [5] is MCF-7 breast adenocarcinoma. In words: MTT cell antiproliferative assay, MCF-7. The conditions noted are these: Homo sapiens, MCF7, 72 h. Format: cell-based. The protocol: as §1, §2, §3
In data set [6] the test system is HeLa, HT-29 and MCF-7 human tumor cell lines. In words: Antiproliferative activity over the three human tumor cell lines (MTT). The data set is classed as cell-based. The conditions noted are these: Homo sapiens, range over the cell lines, Table S1; read-out: Cytotoxicity range (range of antiproliferative IC50 values). As to the method: as §1
The antiproliferative activity of the compounds against three human tumor cell lines of different origins (i.e., HeLa cervix epithelioid carcinoma, HT-29 colon adenocarcinoma and MCF-7 breast adenocarcinoma) was evaluated by the MTT method. […] This high success rate is the result of a combination of favorable scaffolds and substituents, and it is similar to those of previous reports on related series. […] We have previously observed the same trend for related compounds acting at the colchicine site of tubulin [10, 23]. For this pyridine series, we observed a different potency trend when we compare the 4-amino-3-pyridine and the 3-amino-4-pyridine derivatives. […] This different behavior is probably a reflection of their different shape, combined with the different geometries imposed by different bridges. We have previously shown that the potency ordering isocombretastatins similar to oximes higher than benzophenones could be explained by the higher conjugation of the ketones with the aromatic rings, which imposes a more planar disposition than those required for high affinity colchicine site binding. For the 3-amino-4-pyridine series, more planar structures are required in order to avoid the bumping of the amino substituents with tubulin out the plane of the aromatic ring, an effect which we have previously shown to impact the potency of 3-substituted indolecombretastatins and dimethylaminophenyl phenstatins. This different geometrical disposition of the amino substituents, and the different adaptability of their corresponding pockets in the two series, can also account for the preference of bulkier substituents at position 3, such as the pyrrolidine rather than the smaller dimethylamino. […] The opposite is observed for the 4-dimethylaminophenyl phenstatins 1a and 1b. […] The remarkable levels of solubility achieved for the quaternary ammonium salts came unfortunately at the expenses of biological activity.
The effect of the different compounds on the proliferation of human cell lines was determined by using the MTT (3-[4,5-dimethylthiazol-2-yl]-2,5-diphenyltetrazolium bromide) reagent (MTT Thiazolyl Blue Tetrazolium Bromide, Sigma-Aldrich, St. Louis, MO, USA) dissolved in PBS 5 mg/mL. Cell viability was evaluated seeding 100 µL of cells in exponential growth phase with appropriate cell line concentration (1.5 × 10^4 HeLa and MCF-7 cells/mL and 3 × 10^4 HT-29 cells/mL) in complete medium in 96-well plates at 37 °C and 5% CO2. After 24 h incubation to allow cells to attach to the plates the ligands were added at different concentrations from 10^−5 to 10^−9 M. The effect on the proliferation was evaluated 72 h post-treatment by adding the MTT reagent (10 µL/well) to a final concentration of 0.5 mg/mL and the plate was further incubated for another 3 h. […]

The mark [7] stands for this setting: phosphate buffer, pH 7, aqueous buffer, phosphate buffer pH 7.0, 48 h stirring, filtered, UV, read-out: Solub.
[8] abbreviates: aqueous buffer, phosphate buffer pH 7.0, 48 h stirring, filtered, UV, read-out: Solub.

What is called IC50 is the point on the concentration scale where inhibition reaches its midpoint.

In the case of `C=C(c1ccnc(N(C)C)c1)c1cc(OC)c(OC)c(OC)c1` [Compound 3g, N,N-Dimethyl-4-(1-(3,4,5-trimethoxyphenyl)vinyl)pyridin-2-amine], the IC50 in data set [1] was > 20000 nM; in data set [2], 403 nM; in data set [4] it was 397 nM; in data set [5], 367 nM. For the same compound, in data set [3] (setting [7]), the solubility at 48 h stood at 136 µg/mL (≈ 433 µM).
Turning to `C=C(c1ccc(N(C)C)cc1)c1ccc(OC)c(OC)c1OC` [Compound 3d, N,N-dimethyl-4-(1-(2,3,4-trimethoxyphenyl)vinyl)aniline], the IC50 in data set [1] is > 20000 nM; in data set [2], 1000 nM; in data set [4], 4000 nM; in data set [6], > 1000 nM; in data set [5], 2000 nM.
As to `COc1cc(C(=O)c2ccc(N(C)C)cc2)cc(OC)c1OC` [Compound 1a, (4-(Dimethylamino)phenyl)(3,4,5-trimethoxyphenyl)methanone], the results for the IC50 in data set [1], in data set [2] and in data set [4] were > 20000 nM, 90 nM and 400 nM, respectively. Also, the Solub. in data set [3] (phosphate buffer pH 7.0, 48 h stirring, filtered, UV) was determined as 48 µg/mL.
As for `COc1cc(C=Cc2ccc(N3CCCC3)cc2)cc(OC)c1OC` [Compound 8i, 1-(4-(3,4,5-Trimethoxystyryl)phenyl)pyrrolidine], the values for the 50% inhibitory concentration (IC50) in data set [2], in data set [4] and in data set [5] were 243 nM, 430 nM and 140 nM, respectively. For the same compound, the “improvement of HT-29 IC50 after verapamil treatment” value in data set [4] (10 µM verapamil) was > 2 fold.
For `COc1cc(C(=O)c2ccc(N3CCCC3)nc2)cc(OC)c1OC` [Compound 1c, (6-(Pyrrolidin-1-yl)pyridin-3-yl)(3,4,5-trimethoxyphenyl)methanone], the half-inhibitory concentration (IC50) in data set [1] was > 20000 nM; in data set [2], 1600 nM; in data set [4] it was 5170 nM; in data set [6], > 1000 nM; in data set [5] it was 2330 nM.
With `COc1ccc(C(=NO)c2ccc(N(C)C)cc2)c(OC)c1OC` [Compound 2d, (4-(Dimethylamino)phenyl)(2,3,4-trimethoxyphenyl)methanone oxime], the IC50 is > 20000 nM in data set [1], 373 nM in data set [2], 320 nM in data set [4] and 277 nM in data set [5].
`C=C(c1ccc(N2CCCC2)nc1)c1cc(OC)c(OC)c(OC)c1` [Compound 3c, 2-(Pyrrolidin-1-yl)-5-(1-(3,4,5-trimethoxyphenyl)vinyl)pyridine]: the IC50 in data set [1] was > 20000 nM; in data set [2] it was 523 nM; in data set [4], 383 nM; in data set [6], 140 to 523 nM.
In the case of `COc1cc(C(=NO)c2ccc(N(C)C)cc2)cc(OC)c1OC` [Compound 2a, (4-(Dimethylamino)phenyl)(3,4,5-trimethoxyphenyl)methanone oxime], the half-maximal inhibitory concentration (IC50) was > 20000 nM in data set [1], 800 nM in data set [2] and 1000 nM in data set [4]. Besides, the solubility at 48 h in data set [3] (setting [8]) was 74 µg/mL (≈ 224 µM).
For `COc1cc(C(=NO)c2ccnc(N(C)C)c2)cc(OC)c1OC` [Compound 2g, (2-(Dimethylamino)pyridin-4-yl)(3,4,5-trimethoxyphenyl)methanone oxime], the IC50 in data set [1] was > 20000 nM; in data set [2], 533 nM; in data set [4], 3370 nM; in data set [5], 407 nM. In addition, the solubility at 48 h in data set [3] (setting [7]) is 583 µg/mL (≈ 1760 µM); in data set [3] (phosphate buffer, pH 7, aqueous buffer, phosphate buffer pH 7, stated in text, read-out: aqueous solubility) it was ~600 µg/mL (≈ 1810 µM).
Take `C=C(c1ccc(N(C)C)cc1)c1cc(OC)c(OC)c(OC)c1` [Compound 3a, N,N-Dimethyl-4-(1-(3,4,5-trimethoxyphenyl)vinyl)aniline]: the IC50 in data set [1] was 1900 nM; in data set [2], 40 nM; in data set [4] it was 70 nM. The solubility at 48 h in data set [3] (setting [8]) stood at 30 µg/mL (≈ 95.7 µM).
Take `COc1ccc(C(=O)c2ccc(N(C)C)cc2)c(OC)c1OC` [Compound 1d, (4-(Dimethylamino)phenyl)(2,3,4-trimethoxyphenyl)methanone]: the IC50 is > 20000 nM in data set [1]; 413 nM in data set [2]; 500 nM in data set [4]; 407 to 650 nM in data set [6]; 407 nM in data set [5].
